Tested on: K24384-001-R-PDC complex spheroids, viability
Experiment: Anticancer human tumor K24384-001-R-PDC patient-derived pancreatic adenocarcinoma cell line growth inhibition [GQUAD]
Details: for IC50: curve of first compound; for viability, T/C: stronger effect = lower value
Summary of the method: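 Tumor cells were grown as complex spheroids with HUVEC endothelial cells and mesenchymal stem cells as stroma. G-quadruplex stabilizers were combined with targeted agents over half-log dilutions from near the clinical Cmax, or from 10 microM.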

[1] = second compound 0.0316 µM, first compound 0.0316 µM
[2] = second compound 0.0316 µM, first compound 0.1 µM
[3] = second compound 0.0316 µM, first compound 0.316 µM
[4] = second compound 0.0316 µM, first compound 1 µM
[5] = second compound 0.0316 µM, first compound 3.16 µM
[6] = second compound 0.0316 µM, first compound 10 µM
[7] = second compound 0.1 µM, first compound 0.0316 µM
[8] = second compound 0.1 µM, first compound 0.1 µM
[9] = second compound 0.1 µM, first compound 0.316 µM
[10] = second compound 0.1 µM, first compound 1 µM
[11] = second compound 0.1 µM, first compound 3.16 µM
[12] = second compound 0.1 µM, first compound 10 µM
[13] = second compound 0.316 µM, first compound 0.0316 µM
[14] = second compound 0.316 µM, first compound 0.1 µM
[15] = second compound 0.316 µM, first compound 0.316 µM
[16] = second compound 0.316 µM, first compound 1 µM
[17] = second compound 0.316 µM, first compound 3.16 µM
[18] = second compound 0.316 µM, first compound 10 µM
[19] = second compound 1 µM, first compound 0.0316 µM
[20] = second compound 1 µM, first compound 0.1 µM
[21] = second compound 1 µM, first compound 0.316 µM
[22] = second compound 1 µM, first compound 1 µM
[23] = second compound 1 µM, first compound 3.16 µM
[24] = second compound 1 µM, first compound 10 µM
[25] = second compound 3.16 µM, first compound 0.0316 µM
[26] = second compound 3.16 µM, first compound 0.1 µM
[27] = second compound 3.16 µM, first compound 0.316 µM
[28] = second compound 3.16 µM, first compound 1 µM
[29] = second compound 3.16 µM, first compound 3.16 µM
[30] = second compound 3.16 µM, first compound 10 µM
[31] = second compound 10 µM, first compound 0.0316 µM
[32] = second compound 10 µM, first compound 0.1 µM
[33] = second compound 10 µM, first compound 0.316 µM
[34] = second compound 10 µM, first compound 1 µM
[35] = second compound 10 µM, first compound 3.16 µM
[36] = second compound 10 µM, first compound 10 µM
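Also: spheroids exposed to compounds for seven days.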

What does the source list for `C#Cc1c(F)ccc2cc(O)cc(-c3ncc4c(N5CC6CCC(C5)N6)nc(OCC56CCCN5CC(F)C6)nc4c3F)c12` (centres undefined) + Cc1cnc(CNC(=O)c2c(=O)c3ccc(N4CCCN(C)CC4)nc3n3c2sc2ccccc23)cn1?
IC50 (second compound 0.0316 µM): 966 nM; IC50 (second compound 0.1 µM): 494 nM; IC50 (second compound 0.316 µM): 91.8 nM; IC50 (second compound 1 µM): < 31.6 nM; IC50 (second compound 3.16 µM): < 31.6 nM; IC50 (second compound 10 µM): < 31.6 nM; viability, T/C [1]: 72%; viability, T/C [2]: 83.7%; viability, T/C [3]: 88.4%; viability, T/C [4]: 49%; viability, T/C [5]: 31.2%; viability, T/C [6]: 23.1%; viability, T/C [7]: 68.5%; viability, T/C [8]: 65.3%; viability, T/C [9]: 54%; viability, T/C [10]: 41.6%; viability, T/C [11]: 31.9%; viability, T/C [12]: 20.4%; viability, T/C [13]: 52.3%; viability, T/C [14]: 48%; viability, T/C [15]: 51.6%; viability, T/C [16]: 31.7%; viability, T/C [17]: 32.7%; viability, T/C [18]: 15.5%; viability, T/C [19]: 34.7%; viability, T/C [20]: 42.6%; viability, T/C [21]: 41.5%; viability, T/C [22]: 29%; viability, T/C [23]: 27%; viability, T/C [24]: 14.1%; viability, T/C [25]: 29%; viability, T/C [26]: 36.7%; viability, T/C [27]: 33.9%; viability, T/C [28]: 34.9%; viability, T/C [29]: 18.4%; viability, T/C [30]: 11.9%; viability, T/C [31]: 0.13%; viability, T/C [32]: 0.18%; viability, T/C [33]: 0.23%; viability, T/C [34]: 0.2%; viability, T/C [35]: 0.23%; viability, T/C [36]: 0.2%

Which results are given for `COc1ncnc(C2CC2)c1-c1ncc2cnn(Cc3ccc(-c4nc(C(F)(F)F)cn4C(C)C)cc3)c2n1` + Cc1cnc(CNC(=O)c2c(=O)c3ccc(N4CCCN(C)CC4)nc3n3c2sc2ccccc23)cn1?
IC50 (second compound 0.0316 µM): > 10000 nM; IC50 (second compound 0.1 µM): > 10000 nM; IC50 (second compound 0.316 µM): < 31.6 nM; IC50 (second compound 1 µM): < 31.6 nM; IC50 (second compound 3.16 µM): < 31.6 nM; IC50 (second compound 10 µM): < 31.6 nM; viability, T/C [1]: 85.9%; viability, T/C [2]: 90.3%; viability, T/C [3]: 78%; viability, T/C [4]: 84.6%; viability, T/C [5]: 69.1%; viability, T/C [6]: 94.5%; viability, T/C [7]: 46.1%; viability, T/C [8]: 71%; viability, T/C [9]: 71.6%; viability, T/C [10]: 52.2%; viability, T/C [11]: 57.4%; viability, T/C [12]: 79.5%; viability, T/C [13]: 44.5%; viability, T/C [14]: 43.5%; viability, T/C [15]: 43.3%; viability, T/C [16]: 43.2%; viability, T/C [17]: 65.1%; viability, T/C [18]: 46.4%; viability, T/C [19]: 43.6%; viability, T/C [20]: 46.7%; viability, T/C [21]: 41%; viability, T/C [22]: 44.7%; viability, T/C [23]: 42.9%; viability, T/C [24]: 36.1%; viability, T/C [25]: 31.5%; viability, T/C [26]: 34%; viability, T/C [27]: 33%; viability, T/C [28]: 42.1%; viability, T/C [29]: 39.1%; viability, T/C [30]: 29%; viability, T/C [31]: 24%; viability, T/C [32]: 13.7%; viability, T/C [33]: 23.1%; viability, T/C [34]: 20.8%; viability, T/C [35]: 17.1%; viability, T/C [36]: 0.33%
